{"source": "paper PMC5509375", "about": "“Oxidative stress induced in E. coli by the human antimicrobial peptide LL-37” (PLoS Pathogens, 2017)", "key": {"[1]": {"system": "E. coli MG1655", "assay": "MIC assay, anaerobic fermentation (oxygen scavenged with PCA/PCD)", "type": "cell-based", "details": "E. coli MG1655, EZRDM, 30°C, 6 hr, PCA 10 mM / PCD 100 nM", "description": "(§1) We have measured MICs in aerobic and anaerobic fermentation conditions using a series of two-fold dilutions for the four natural AMPs in the same rich, chemically defined EZRDM medium at 30°C (Table 1). The MIC in anaerobic fermentation conditions is 4-fold higher for LL-37 and 8-fold higher for melittin. […] For cecropin A and for indolicidin, the MIC is the same in aerobic and fermentation conditions. Evidently the activity against E. coli of some, but not all, natural AMPs is enhanced by the presence of oxygen. For LL-37, the primary focus of this study, we also measured the MIC in conditions enabling anaerobic respiration (no oxygen, but supplemented with 10 mM KNO3; Table 2).\nAnaerobic MIC values (Table 1) were measured on a 96-well plate that was sealed with plastic wrap. Cells were incubated in EZRDM containing protocatechuic acid (PCA) at 10 mM and protocatechuate 3,4-dioxygenase (PCD) at 100 nM to scavenge oxygen. The plate was incubated at 30°C for 6 hr, followed by OD measurements."}, "[2]": {"system": "E. coli MG1655", "assay": "MIC assay, broth microdilution, aerobic growth", "type": "cell-based", "details": "E. coli MG1655, EZRDM, 30°C, 6 hr, two-fold serial dilutions, reproducible to the same factor of two", "description": "as §1\nThe aerobic MIC values for the various AMPs (Table 1) were determined using the broth microdilution method as previously described. Two-fold serial dilutions of LL-37 in 1× EZRDM were performed in separate rows of a polystyrene 96-well plate, with each plate containing an inoculum of E. coli MG1655. The inoculum was a 1:20 dilution from a bulk culture at midlog phase (OD600 = 0.5) grown at 30°C. The plate was incubated at 30°C and shaken at 200 rpm in a Lab-Line Orbital Environ Shaker (model 3527) for 6 hr. The MIC value was taken as the lowest concentration for which no growth was discernible (<0.05 OD) after 6 hr."}, "[3]": {"system": "E. coli MG1655", "set-up": "method as in 2 sources, one per row (each row's own in cited_ref): ref 20 = [20]; PMID 25561551; doi:10.1073/pnas.1417703112; 20 Choi H , Yang Z , Weisshaar JC . Single-cell, real-time detection of oxidative stress induced in Escherichia coli by the antimicrobial peptide CM15 . Proc Natl Acad Sci U S A . 2015; 112 ( 3 ): E3 ||| ref 22 = [22]; PMID 26493221; doi:10.1021/acschembio.5b00547; 22 Choi H , Chakraborty S , Liu R , Gellman SH , Weisshaar JC . Single-Cell, Time-Resolved Antimicrobial Effects of a Highly Cationic, Random Nylon-3 Copolymer on Live Escherichia coli . ACS Chem Biol", "details": "cited from earlier work"}, "[4]": {"system": "E. coli MG1655", "details": "cited from earlier work", "description": "Table 1 Antimicrobial peptides and their MICs for E. coli MG1655 in aerobic growth vs anaerobic fermentation in EZRDM at 30°C. | column: MIC (μM) ^1 / Aerobic || Additional evidence that the onset of strong CellROX* fluorescence coincides with entry of LL-37 into the periplasm comes from two-color imaging experiments using CellROX Green and a red fluorescent variant of the peptide, Rh-LL-37. […] Under aerobic growth conditions, at t = 0 we flowed 25 μM CellROX Green plus 8 μM Rh-LL-37 across plated E. coli cells. As before, wea ... || To test for the importance of LL-37 stereochemistry on the magnitude of oxidative effects, we repeated the CellROX* assay in aerobic conditions using 4 μM of the all-D stereoisomer of LL-37. […] In addition, our earlier work found the same MIC for D- and L-LL-37 [19]."}, "[5]": {"system": "MG1655 E. coli", "type": "cell-based", "details": "8 μM Rh-LL-37 + 25 μM CellROX Green, aerobic, 59 cells from three repeats"}}, "note": "Like-named read-outs stand apart in the source and are kept apart here. Ends that are not written are not given here."}
{"molecule": "CC[C@H](C)[C@H](N)C(=O)N[C@@H](CC(C)C)C(=O)N1CCC[C@H]1C(=O)N[C@@H](Cc1c[nH]c2ccccc12)C(=O)N[C@@H](CCCCN)C(=O)N[C@@H](Cc1c[nH]c2ccccc12)C(=O)N1CCC[C@H]1C(=O)N[C@@H](Cc1c[nH]c2ccccc12)C(=O)N[C@@H](Cc1c[nH]c2ccccc12)C(=O)N1CCC[C@H]1C(=O)N[C@@H](Cc1c[nH]c2ccccc12)C(=O)N[C@@H](CCCNC(=N)N)C(=O)N[C@@H](CCCNC(=N)N)C(N)=O", "note": "[Indolicidin]", "values": [{"measurement": "MIC (μM) Fermentation", "setting": "[1]", "result": 32, "unit": "µM"}, {"measurement": "MIC (μM) Aerobic", "setting": "[2]", "result": 32, "unit": "µM"}]}
{"molecule": "CM15", "values": [{"measurement": "MIC (μM) Fermentation", "setting": "[3]; E. coli MG1655, EZRDM, 30°C, anaerobic fermentation, CM15 from earlier study", "result": 100, "unit": "µM"}, {"measurement": "MIC in anaerobic (fermentation) relative to aerobic growth", "setting": "[3]; E. coli, fold higher in anaerobic", "result": 20, "unit": "fold"}, {"measurement": "MIC (μM) Aerobic", "setting": "[4]; E. coli MG1655, EZRDM, 30°C, aerobic, CM15 from earlier study", "result": 5, "unit": "µM"}]}
{"molecule": "KWKLFKKIEKVGQNIRDGIIKAGPAVAVVGQATQIAK-NH2 [Cecropin A]", "values": [{"measurement": "MIC (μM) Fermentation", "setting": "[1]", "result": 0.9, "unit": "µM"}, {"measurement": "MIC (μM) Aerobic", "setting": "[2]", "result": 0.9, "unit": "µM"}]}
{"molecule": "Rhodamine B-LL-37 [Rh-LL-37]", "values": [{"measurement": "Timing of CellROX* fluorescence relative to periplasmic Rh-LL-37 fluorescence", "setting": "[5]", "result": "rise on the same time scale"}, {"measurement": "MIC compared with unlabeled L-LL-37", "setting": "[4]; MG1655 E. coli", "result": "the same MIC"}]}
